Experiment: Adverse events and dose-limiting toxicity (NCI-CTCAE v 4.03), MRZ ± BEV in recurrent grade IV malignant glioma patients
Type: in vivo, human
Source text: An adverse event (AE) is any noxious, unintended, or untoward medical occurrence that may appear or worsen in a subject during the course of a study. […] Any worsening (i.e., any clinically significant adverse change in the frequency or intensity of a pre-existing condition) should be considered an AE.
The severity/intensity of AEs will be graded based upon the subject's symptoms according to the current active minor version of the Common Terminology Criteria for Adverse Events ( ).

[1] = treated with MRZ 0.8 mg/m^2 + BEV (N = 27)

C[C@@]12OC(=O)[C@]1([C@@H](O)[C@@H]1C=CCCC1)NC(=O)[C@@H]2CCCl [MRZ, marizomib]
Fall: patients, worst Grade 2 (Part 1 N = 36, Part 2 N = 30): 1
Fatigue: patients, Total (Part 1 N = 36, Part 2 N = 30): 20
Fatigue: patients, worst Grade 1 (Part 1 N = 36, Part 2 N = 30): 8
Fatigue: patients, worst Grade 2 (Part 1 N = 36, Part 2 N = 30): 11
Fatigue: patients, worst Grade 3 (Part 1 N = 36, Part 2 N = 30): 2
Hallucination: patients, Total (Part 1 N = 36, Part 2 N = 30): 12
Hallucination: patients, worst Grade 1 (Part 1 N = 36, Part 2 N = 30): 6
Hallucination: patients, worst Grade 2 (Part 1 N = 36, Part 2 N = 30): 4
Hallucination: patients, worst Grade 3 (Part 1 N = 36, Part 2 N = 30): 1
Hallucination: patients, worst Grade 4 (Part 1 N = 36, Part 2 N = 30): 1
Headache: patients, Total (Part 1 N = 36, Part 2 N = 30): 14
Headache: patients, worst Grade 1 (Part 1 N = 36, Part 2 N = 30): 10
Headache: patients, worst Grade 2 (Part 1 N = 36, Part 2 N = 30): 3
Headache: patients, worst Grade 3 (Part 1 N = 36, Part 2 N = 30): 1
Hyperglycemia: patients, Total (Part 1 N = 36, Part 2 N = 30): 7
Hyperglycemia: patients, worst Grade 1 (Part 1 N = 36, Part 2 N = 30): 2
Hyperglycemia: patients, worst Grade 2 (Part 1 N = 36, Part 2 N = 30): 4
Hyperglycemia: patients, worst Grade 3 (Part 1 N = 36, Part 2 N = 30): 1−
Hypertension: patients, Total (Part 1 N = 36, Part 2 N = 30): 4
Hypertension: patients, worst Grade 1 (Part 1 N = 36, Part 2 N = 30): 1
Hypertension: patients, worst Grade 2 (Part 1 N = 36, Part 2 N = 30): 1
Hypertension: patients, worst Grade 3 (Part 1 N = 36, Part 2 N = 30): 2
Hypokalemia: patients, Total (Part 1 N = 36, Part 2 N = 30): 9
Hypokalemia: patients, worst Grade 1 (Part 1 N = 36, Part 2 N = 30): 7
Hypokalemia: patients, worst Grade 2 (Part 1 N = 36, Part 2 N = 30): 2
Infusion Site Reaction (includes edema, pain, phlebitis, redness): patients, Total (Part 1 N = 36, Part 2 N = 30): 5
Infusion Site Reaction: patients, worst Grade 1 (Part 1 N = 36, Part 2 N = 30): 3
Infusion Site Reaction: patients, worst Grade 2 (Part 1 N = 36, Part 2 N = 30): 2
Insomnia: patients, Total (Part 1 N = 36, Part 2 N = 30): 1.
Insomnia: patients, worst Grade 1 (Part 1 N = 36, Part 2 N = 30): 7
Insomnia: patients, worst Grade 2 (Part 1 N = 36, Part 2 N = 30): 5
Insomnia: patients, worst Grade 3 (Part 1 N = 36, Part 2 N = 30): 1
Nausea: patients, Total (Part 1 N = 36, Part 2 N = 30): 11
Nausea: patients, worst Grade 1 (Part 1 N = 36, Part 2 N = 30): 7
Nausea: patients, worst Grade 2 (Part 1 N = 36, Part 2 N = 30): 2
Nausea: patients, worst Grade 3 (Part 1 N = 36, Part 2 N = 30): 2
Platelet Count Decreased: patients, Total (Part 1 N = 36, Part 2 N = 30): 7
Platelet Count Decreased: patients, worst Grade 1 (Part 1 N = 36, Part 2 N = 30): 7
Vomiting: patients, Total (Part 1 N = 36, Part 2 N = 30): 10
Vomiting: patients, worst Grade 1 (Part 1 N = 36, Part 2 N = 30): 8
Vomiting: patients, worst Grade 3 (Part 1 N = 36, Part 2 N = 30): 2
marizomib-related adverse events ≥3: confusional state (Phase 1): 3
marizomib-related adverse events ≥3: headache (Phase 1): 3
patients with marizomib-related serious adverse events (Phase 1): Four
Grade 4 serious adverse event (hallucination, MRZ-related) (Phase 2 monotherapy): one
treatment-related Grade ≥3 AEs in two or more patients (Phase 2 monotherapy): fatigue, hallucination, lethargy
Grade 4 serious adverse event (hallucination, MRZ-related) (Phase 2 monotherapy, listed as marizomib): One
Anaemia: # Patients, AE related to the labelled drug(s) (pts on MRZ+BEV): 6
Anxiety: # Patients, AE related to the labelled drug(s) (pts on MRZ+BEV): 0
Aphasia: # Patients, AE related to the labelled drug(s) (pts on MRZ+BEV): 0
Appendicitis Perforated: # Patients, AE related to the labelled drug(s) (pts on MRZ+BEV): 0
Asthenia: # Patients, AE related to the labelled drug(s) (pts on MRZ+BEV): 0
Ataxia: # Patients, AE related to the labelled drug(s) (pts on MRZ+BEV): 6
Confusional State: # Patients, AE related to the labelled drug(s) (pts on MRZ+BEV): 6
Constipation: # Patients, AE related to the labelled drug(s) (pts on MRZ+BEV): 4
Convulsion: # Patients, AE related to the labelled drug(s) (pts on MRZ+BEV): 0
Delusion: # Patients, AE related to the labelled drug(s) (pts on MRZ+BEV): 1
Depressed Level of Consciousness: # Patients, AE related to the labelled drug(s) (pts on MRZ+BEV): 0
Diarrhoea: # Patients, AE related to the labelled drug(s) (pts on MRZ+BEV): 9
Dizziness: # Patients, AE related to the labelled drug(s) (pts on MRZ+BEV): 8
Dysarthria: # Patients, AE related to the labelled drug(s) (pts on MRZ+BEV): 1
Dysphagia: # Patients, AE related to the labelled drug(s) (pts on MRZ+BEV): 0
Dysphonia: # Patients, AE related to the labelled drug(s) (pts on MRZ+BEV): 0
Dyspnoea: # Patients, AE related to the labelled drug(s) (pts on MRZ+BEV): 0
Ear Infection: # Patients, AE related to the labelled drug(s) (pts on MRZ+BEV): 0
Embolism: # Patients, AE related to the labelled drug(s) (pts on MRZ+BEV): 0
Epistaxis: # Patients, AE related to the labelled drug(s) (pts on MRZ+BEV): 0
Falls: # Patients, AE related to the labelled drug(s) (pts on MRZ+BEV): 3
Fatigue: # Patients, AE related to the labelled drug(s) (pts on MRZ+BEV): 1
Fracture of Femur: # Patients, AE related to the labelled drug(s) (pts on MRZ+BEV): 0
Haemorrhage Intracranial: # Patients, AE related to the labelled drug(s) (pts on MRZ+BEV): 0
Hallucination: # Patients, AE related to the labelled drug(s) (pts on MRZ+BEV): 11
Headache: # Patients, AE related to the labelled drug(s) (pts on MRZ+BEV): 5
Hemiparesis: # Patients, AE related to the labelled drug(s) (pts on MRZ+BEV): 0
Hyperglycemia: # Patients, AE related to the labelled drug(s) (pts on MRZ+BEV): 0
Hypertension: # Patients, AE related to the labelled drug(s) (pts on MRZ+BEV): 0
Hypokalemia: # Patients, AE related to the labelled drug(s) (pts on MRZ+BEV): 0
Hyponatremia: # Patients, AE related to the labelled drug(s) (pts on MRZ+BEV): 1
Hypotension: # Patients, AE related to the labelled drug(s) (pts on MRZ+BEV): 0
Infusion Site Pain: # Patients, AE related to the labelled drug(s) (pts on MRZ+BEV): 6
Insomnia: # Patients, AE related to the labelled drug(s) (pts on MRZ+BEV): 1
Lymphocyte Count Decreased: # Patients, AE related to the labelled drug(s) (pts on MRZ+BEV): 0
Muscular Weakness: # Patients, AE related to the labelled drug(s) (pts on MRZ+BEV): 2
Nausea: # Patients, AE related to the labelled drug(s) (pts on MRZ+BEV): 19
Optic Nerve Disorder: # Patients, AE related to the labelled drug(s) (pts on MRZ+BEV): 0
Pyramidal Tract Syndrome: # Patients, AE related to the labelled drug(s) (pts on MRZ+BEV): 0
Tumor Metastasis: # Patients, AE related to the labelled drug(s) (pts on MRZ+BEV): 0
Vision Blurred: # Patients, AE related to the labelled drug(s) (pts on MRZ+BEV): 3
Vomiting: # Patients, AE related to the labelled drug(s) (pts on MRZ+BEV): 12
time of onset of CNS adverse events (range): from the day of treatment to six days post-marizomib infusion
Anaemia related to the labelled drug(s) [1]: (18.5%)
Anaemia related to the labelled drug(s), patients [1]: 5
Ataxia related to the labelled drug(s) [1]: (25.9%)
Ataxia related to the labelled drug(s), patients [1]: 7
Confusional state related to the labelled drug(s) [1]: (25.9%)
Confusional state related to the labelled drug(s), patients [1]: 7
Constipation related to the labelled drug(s) [1]: (18.5%)
Constipation related to the labelled drug(s), patients [1]: 5
Diarrhoea related to the labelled drug(s) [1]: (29.6%)
Diarrhoea related to the labelled drug(s), patients [1]: 8
Dizziness related to the labelled drug(s) [1]: (29.6%)
Dizziness related to the labelled drug(s), patients [1]: 8
Dysphonia related to the labelled drug(s) [1]: (3.7%)
Dysphonia related to the labelled drug(s), patients [1]: 1
Epistaxis related to the labelled drug(s) [1]: (0.0%)
Epistaxis related to the labelled drug(s), patients [1]: 0
Fall related to the labelled drug(s) [1]: (11.1%)
Fall related to the labelled drug(s), patients [1]: 3
Fatigue related to the labelled drug(s) [1]: (70.4%)
Fatigue related to the labelled drug(s), patients [1]: 19
Hallucination related to the labelled drug(s) [1]: (44.4%)
Hallucination related to the labelled drug(s), patients [1]: 12
Headache related to the labelled drug(s) [1]: (44.4%)
Headache related to the labelled drug(s), patients [1]: 12
Hypertension related to the labelled drug(s) [1]: (3.7%)
Hypertension related to the labelled drug(s), patients [1]: 1
Infusion site pain related to the labelled drug(s) [1]: (14.8%)
Infusion site pain related to the labelled drug(s), patients [1]: 4
Muscular weakness related to the labelled drug(s) [1]: (11.1%)
Muscular weakness related to the labelled drug(s), patients [1]: 3
Nausea related to the labelled drug(s) [1]: (63.0%)
Nausea related to the labelled drug(s), patients [1]: 17
Platelet count decreased related to the labelled drug(s) [1]: (7.4%)
Platelet count decreased related to the labelled drug(s), patients [1]: 2
Stomatitis related to the labelled drug(s) [1]: (11.1%)
Stomatitis related to the labelled drug(s), patients [1]: 3
Upper-airway cough syndrome related to the labelled drug(s) [1]: (0.0%)
Upper-airway cough syndrome related to the labelled drug(s), patients [1]: 0
Vomiting related to the labelled drug(s) [1]: (55.6%)
Vomiting related to the labelled drug(s), patients [1]: 15

Reference: patent US20200085789A1, “USE OF A PROTEASOME INHIBITOR FOR THE TREATMENT OF CENTRAL NERVOUS SYSTEM (CNS) CANCERS” (Celgene International II Sàrl, priority 2017, published 2020)
